Like-named read-outs stand apart in the source and are kept apart here.
Details: for stability of pyrophosphate on storage: 1 week at 40° C.; for stability of pyrophosphate on storage / loss of pyrophosphate during sterilization: all buffers; for change in the pH of the solutions: after sterilization and after storage for a week at 40° C.; for loss of pyrophosphate during sterilization: pH 6 and lower; for Recoveries: unsterilized
Experimental: Introduction: This study was designed to evaluate the stability of pyrophosphate salts with different buffers over a pH range from 4 to 10 during steam sterilization and after storage at 40° C. Two pyrophosphate salts and four buffers were obtained for the study. TRIS was added to all solutions as a pH stabilizer. Two of the solutions were also prepared without TRIS for comparison. The pH of the solutions was adjusted from pH 4-10 with 1N HCl or 1N NaOH. The solutions were sterilized at 121° C. for 40 minutes. Pyrophosphate concentration was determined before and after sterilization and after storage. The pH was also determined after sterilization and after storage.
The salts tested were: • 1. Disodium Pyrophosphate (Na2H2P2O7) • 2. Tetrapotassium Pyrophosphate (K4P2O7)
The study was performed using the sodium and potassium salts of pyrophosphate with the buffers shown below. Solutions were not prepared with bicarbonate below pH 7 because bicarbonate will decompose at a lower pH. • 1. Sodium Lactate • 2. Sodium Bicarbonate • 3. Sodium Citrate • 4. Sodium Pyruvate
The concentrations of the solution components are shown below in Table 2.

| Structure (SMILES) | stability of pyrophosphate on storage (pH 7-10) | stability of pyrophosphate on storage (pH 7-10, except lactate without TRIS at pH 7) | change in the pH of the solutions | loss of pyrophosphate during sterilization | change in pH after sterilization (all solutions) | pH change after storage (storage for up to two months at 40° C., all solutions) | Recoveries (all buffers at pH 6 and higher) [%] | Recoveries (buffers other than citrate, pH 4 and 5) | stability during sterilization (with bicarbonate at pH 9-10) | stability during sterilization (pH 9) | pH change after storage (storage for 1 week) |
| --- | --- | --- | --- | --- | --- | --- | --- | --- | --- | --- | --- |
| O=P([O-])([O-])OP(=O)(O)O.[Na+].[Na+] [Disodium Pyrophosphate] | remained unchanged | stable | no change in the pH | substantial loss of pyrophosphate | no change in pH | less than 0.1 pH unit | ≥ 95 | 90-102% | most stable | – | – |
| O=P([O-])([O-])OP(=O)([O-])[O-].[K+].[K+].[K+].[K+] [Tetrapotassium Pyrophosphate] | – | – | no change in the pH | substantial loss of pyrophosphate | no change in pH | – | – | – | – | most stable | less than 0.1 pH unit |
